The values that follow come from PMC8073907, “Peptide targeting of lysophosphatidylinositol-sensing GPR55 for osteoclastogenesis tuning” (Cell Communication and Signaling : CCS, 2021).

In the assay the test system is ssGPR55-K80A and ssGPR55-Q87A. As to the kind of experiment: LPI-induced MAPK activation in shGPR55-HeLa clones expressing ssGPR55 mutants. The assay is classed as cell-based, human. The note with it: 10 µM 18:0 LPI. The source says: The construct of haemagglutinin (HA)-tagged human GPR55 in pcDNA3 (HA-GPR55) was a gift from Prof. K. Mackie, Indiana University, Bloomington, IN, USA [39], while the construct ss-3 × HA-GPR55 in pcDNA3.1 (ssGPR55) with a triple HA tag at the N-terminus and an optimised signal sequence (ss, derived from amino acids 1–33 of the human growth hormone: […]) for efficient surface expression was from Prof. A. Irving, Dundee University, UK [40]. For both constructs, mutations were introduced by site-directed mutagenesis using QuickChange kits (Stratagene, La Jolla, CA, USA), according to the manufacturer instructions. The primers for the K80A mutation were 5′-[…]-3′ and 5′-[…]-3′ (Tm, 70.6 °C), and for Q87A were 5′-[…]-3′ and 5′-[…]-3′ (Tm, 73.1 °C).
HeLa cells were plated at 1.5 × 10^5 cells/well in six-well plates in their growth medium without antibiotics. Twenty-four hours later, the cells were transfected with 2.5 µg/well pcDNA3.1, or the mutants ssGPR55-K80A, ssGPR55-Q87A, or 1.25 µg/well (complemented with 1.25 µg/well empty vector) ssGPR55, using Lipofectamine 2000, according to the manufacturer instructions. The different cDNA amounts were necessary to reach equivalent plasma-membrane expression of the receptors, as the mutants were expressed at lower levels, as verified by FACS analyses, and in line with previous reports.
For stable interference of GPR55, HeLa cells were plated at 1.5 × 10^5 cells/well in six-well plates in growth medium without antibiotics, and 24 h later, the cells were transfected with 1.7 µg/well OmicsLink short hairpin (sh)RNA expression clone CSHCTR001-CU6 (shCTRL) or clone HSH022476-3-CU6 (shGPR55) from GeneCopoeia (Rockville, MD, USA), using Lipofectamine 2000, according the manufacturer instructions. Forty-eight hours after transfection, HeLa clones stably expressing shRNAs were selected in growth medium containing 0.3 µg/mL puromycin. The efficiency of interference was monitored by real-time PCR using the primers listed in the Additional file 1: Table S1. HPRT1 was followed as a housekeeping gene. […]

On to lysophosphatidylinositol [LPI], for which the “LPI-stimulated activation of p38” value is recorded as “no LPI-stimulated activation of p38”. Under “5 min”, the “LPI-stimulated activation of ERK2, 5 min” value was “no response at 5 min”. In addition, for the setting “10 min”, the “LPI-stimulated activation of ERK2, 10 min” value is on record as “reduced response at 10 min”.
